Assay results published in PubChem BioAssay AID1195 (EPA DSSTox, 2008).

Test system: human maximum recommended daily dose, FDA database
Experiment: DSSTox (FDAMDD) FDA Maximum (Recommended) Daily Dose Database
Conditions: hits give low values
Procedure, shortened: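 MRDD values come from clinical trials with daily oral dosing, usually for 3–12 months, for the average adult, in mg/day converted to mg/kg-bw/day assuming 60 kg. Antineoplastic mg/m2 doses are divided by 37. Activity score maps log10(1/MRDD mmol) onto 1–100.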

[1] = TherapeuticCategory: antibacterial
[2] = TherapeuticCategory: skeletal muscle relaxant
[3] = TherapeuticCategory: antipsychotic
[4] = TherapeuticCategory: antihypertensive
[5] = TherapeuticCategory: anti inflammatory

OC[C@@]1(O)OC[C@@H](O)[C@@H](O)[C@@H]1O
maximum recommended daily dose (mmol/kg-bw/day) (TherapeuticCategory: fluid and nutrient replenisher, ferric form as hematinic): 2.31

Cc1nc(NS(=O)(=O)c2ccc(N)cc2)oc1C
maximum recommended daily dose (mmol/kg-bw/day) [1]: 0.125

O=C1CN=C(c2ccccc2)c2cc(Cl)ccc2N1CC(F)(F)F
maximum recommended daily dose (mmol/kg-bw/day) (TherapeuticCategory: anxiolytic): 0.00757

CNCCc1ccc(OC(=O)C(C)C)c(OC(=O)C(C)C)c1
maximum recommended daily dose (mmol/kg-bw/day) (TherapeuticCategory: cardiotonic): 0.0325

CC[N+]1(C)CCCC(OC(=O)C(O)(c2ccccc2)c2ccccc2)C1 (configuration not stated)
maximum recommended daily dose (mmol/kg-bw/day) (TherapeuticCategory: anticholinergic): 0.000576

CN(C)CCc1c[nH]c2ccc(Cn3cncn3)cc12
maximum recommended daily dose (mmol/kg-bw/day) (TherapeuticCategory: antimigraine): 0.00186

CO[C@H]1[C@@H](O)[C@H](N)[C@@H](O[C@H]2O[C@H]([C@H](C)N)CC[C@H]2N)[C@H](O)[C@@H]1N(C)C(=O)CN
maximum recommended daily dose (mmol/kg-bw/day) [1]: 0.0164

C#C[C@]1(O)CC[C@H]2[C@@H]3[C@H](C)CC4=C(CCC(=O)C4)[C@H]3CC[C@@]21C
maximum recommended daily dose (mmol/kg-bw/day) (TherapeuticCategory: treatment of menopausal syndrome): 0.000133

C#C[C@]1(O)CC[C@H]2[C@@H]3CCc4cc(O)ccc4[C@H]3CC[C@@]21C
maximum recommended daily dose (mmol/kg-bw/day) (TherapeuticCategory: estrogen): 1.69e-06

Cc1ccccc1-n1c(CF)nc2ccc(N)cc2c1=O
maximum recommended daily dose (mmol/kg-bw/day) [2]: 0.00353

CN1[C@@H]2CC[C@H]1CC(OC(=O)C(CO)c1ccccc1)C2 (some centres not stated)
maximum recommended daily dose (mmol/kg-bw/day) (TherapeuticCategory: anticholinergic, mydriatic, antispasmodic): 4.6e-06

CCOC(=O)c1c(C)cc2c(CO)n[nH]c(=O)c2c1C
maximum recommended daily dose (mmol/kg-bw/day) (TherapeuticCategory: phosphodiesterase inhibitor): 0.724

CC(C)(C(=O)c1cccnc1)c1cccnc1
maximum recommended daily dose (mmol/kg-bw/day) (TherapeuticCategory: diagnostic aid): 0.331

CN1C(=O)CCS(=O)(=O)C1c1ccc(Cl)cc1 (configuration not stated)
maximum recommended daily dose (mmol/kg-bw/day) (TherapeuticCategory: anxiolytic, skeletal muscle relaxant): 0.0244

CCN(CC)C(=O)N1CCN(C)CC1
maximum recommended daily dose (mmol/kg-bw/day) (TherapeuticCategory: anthelmintic): 0.0301

CN1CCC(=C2c3ccccc3CC(=O)c3sccc32)CC1
maximum recommended daily dose (mmol/kg-bw/day) (TherapeuticCategory: antiasthmatic): 0.000108

CCC1(c2ccccc2)C(=O)NC(=O)N(C)C1=O (configuration not stated)
maximum recommended daily dose (mmol/kg-bw/day) (TherapeuticCategory: anticonvulsant, sedative, hypnotic): 0.0406

CC(=O)c1ccc2c(c1)N(CCCN1CCN(CCO)CC1)c1ccccc1S2
maximum recommended daily dose (mmol/kg-bw/day) [3]: 0.0243

N=C(N)N
maximum recommended daily dose (mmol/kg-bw/day) (TherapeuticCategory: none): 0.846

Clc1ccc2c(c1)C(N1CCNCC1)=Nc1ccccc1O2
maximum recommended daily dose (mmol/kg-bw/day) (TherapeuticCategory: antidepressant): 0.0319

CO[C@H]1/C=C/O[C@@]2(C)Oc3c(C)c(O)c4c(O)c(c(/C=N/N5CCN(C)CC5)c(O)c4c3C2=O)NC(=O)/C(C)=C\C=C\[C@H](C)[C@H](O)[C@@H](C)[C@@H](O)[C@@H](C)[C@H](OC(C)=O)[C@@H]1C
maximum recommended daily dose (mmol/kg-bw/day) [1]: 0.0243

CCc1c(C)[nH]c2c1C(=O)C(CN1CCOCC1)CC2 (configuration not stated)
maximum recommended daily dose (mmol/kg-bw/day) [3]: 0.0136

C[C@@H](N)[C@@H](O)c1ccccc1
maximum recommended daily dose (mmol/kg-bw/day) (TherapeuticCategory: decongestant, anorexic): 0.0198

C[C@@H]1C[C@@]2(C)[C@@H](CC[C@@H]3[C@@H]2CC[C@]2(C)[C@@H](O)CC[C@@H]32)CC1=O
maximum recommended daily dose (mmol/kg-bw/day) (TherapeuticCategory: antineoplastic): 0.00549

C[C@](N)(Cc1ccc(O)c(O)c1)C(=O)O
maximum recommended daily dose (mmol/kg-bw/day) [4]: 0.158

Cc1cc2c(OCC(CNC(C)(C)C)OC(=O)c3ccccc3)cccc2[nH]1 (configuration not stated)
maximum recommended daily dose (mmol/kg-bw/day) [4]: 4.39e-05

COc1ccc2cc1Oc1cc3c(cc1OC)CC[N+](C)(C)[C@H]3Cc1ccc(cc1)Oc1c(OC)c(OC)cc3c1[C@@H](C2)[N+](C)(C)CC3
maximum recommended daily dose (mmol/kg-bw/day) [2]: 0.000441

CC(=O)N(c1onc(C)c1C)S(=O)(=O)c1ccc(N)cc1
maximum recommended daily dose (mmol/kg-bw/day) [1]: 0.216

OCCN1CCN(CCCN2c3ccccc3C=Cc3ccccc32)CC1
maximum recommended daily dose (mmol/kg-bw/day) (TherapeuticCategory: antidepressant, antipsychotic): 0.0138

CN(C)[C@@H]1C(=O)C(C(N)=O)=C(O)[C@@]2(O)C(=O)C3=C(O)c4c(O)cccc4[C@@](C)(O)[C@H]3C[C@@H]12
maximum recommended daily dose (mmol/kg-bw/day) (TherapeuticCategory: antiamebic, antibacterial, antirickettsial): 0.0749

CCCN1C[C@H](CSC)C[C@@H]2c3cccc4[nH]cc(c34)C[C@H]21
maximum recommended daily dose (mmol/kg-bw/day) (TherapeuticCategory: antiparkinsonian, dopamine receptor agonist): 0.000159

CC(=O)O[C@H]1CC[C@@]2(C)C(=CC[C@@H]3[C@@H]2CC[C@]2(C)C(=O)CC[C@@H]32)C1
maximum recommended daily dose (mmol/kg-bw/day) (TherapeuticCategory: androgen): 0.0101

O=C(O)Cc1sc(-c2ccccc2)nc1-c1ccc(Cl)cc1
maximum recommended daily dose (mmol/kg-bw/day) [5]: 0.0455

CC(C)(C)NC[C@H](O)COc1nsnc1N1CCOCC1
maximum recommended daily dose (mmol/kg-bw/day) (TherapeuticCategory: antihypertensive, antianginal, antiarrhythmic, antiglaucomic): 0.00316

COc1ccc2c(c1)c(CC(=O)OCC(=O)O)c(C)n2C(=O)c1ccc(Cl)cc1
maximum recommended daily dose (mmol/kg-bw/day) [5]: 0.00721

CCOC(=O)Oc1c(OC)cc(C(=O)O[C@@H]2C[C@@H]3CN4CCc5c([nH]c6cc(OC)ccc56)[C@H]4C[C@@H]3[C@H](C(=O)OC)[C@H]2OC)cc1OC
maximum recommended daily dose (mmol/kg-bw/day) [4]: 7.5e-05

C=C1c2cccc(O)c2C(O)=C2C(=O)[C@]3(O)C(O)=C(C(N)=O)C(=O)[C@@H](N(C)C)[C@@H]3[C@@H](O)[C@H]12
maximum recommended daily dose (mmol/kg-bw/day) [1]: 0.0339
